These results are taken from patent publication US6960685B2 (TopoTarget UK Limited, priority 2000, dated 2005).

Each structure is given as a SMILES string. pIC50: −log10 of the molar value.

For one test, the system named is HDAC (HeLa cell extract). Put plainly: Primary assay: deacetylase activity, HeLa cell extract as source of HDAC. Format: biochemical, human. From the text: Briefly, this assay relies on the release of radioactive acetate from a radioactively labelled histone fragment by the action of HDAC enzyme. Test compounds, which inhibit HDAC, reduce the yield of radioactive acetate. Signal (e.g., scintillation counts) measured in the presence and absence of a test compound provide an indication of that compound's ability to inhibit HDAC activity. Decreased activity indicates increased inhibition by the test compound.
The histone fragment was an N-terminal sequence from histone H4, and it was labelled with radioactively labelled acetyl groups using tritiated acetylcoenzyme A (coA) in conjunction with an enzyme which is the histone acetyltransferase domain of the transcriptional coactivator p300. 0.33 mg of peptide H4 (the N-terminal 20 amino acids of histone H4, synthesized using conventional methods) were incubated with His6-tagged p300 histone acetyltransferase domain (amino acids 1195-1673, expressed in E coli strain BLR(DE3)pLysS (Novagen, Cat. No. 69451-3) and 3H-acetyl coA (10 μL of 3.95 Ci/mmol; from Amersham) in a total volume of 300 μL of HAT buffer (50 mM TrisCl pH 8, 5% glycerol, 50 mM KCl, 0.1 mM ethylenediaminetetraacetic acid (EDTA), 1 mM dithiothreitol (DTT) and 1 mM 4-(2-aminoethyl)-benzenesulfonylfluoride (AEBSF)). The mixture was incubated at 30° C. for 45 min after which the His-p300 was removed using nickel-trinitriloacetic acid agarose (Qiagen, Cat No. 30210). The acetylated peptide was then separated from free acetyl coA by size exclusion chromatography on Sephadex G-15 (Sigma G-15-120), using distilled H2O as the mobile phase.
After purification of the radiolabelled histone fragment, it was incubated with a source of HDAC (e.g., an extract of HeLa cells (a rich source of HDAC), recombinantly produced HDAC1 or HDAC2) and any released acetate was extracted into an organic phase and quantitatively determined using scintillation counting. By including a test compound with the source of HDAC, that compound's ability to inhibit the HDAC was determined.
Two cell volumes of extraction buffer were used, and particulate material was centrifuged out (20800 g, 4° C., 10 min). The supernatant extract having deacetylase activity was aliquotted and frozen for storage.
A source of HDAC (e.g., 2 μL of crude HeLa extract, 5 μL of HDAC1 or HDAC2; in elution buffer, as above) was incubated with 3 μL of radioactively labelled peptide along with appropriate dilutions of candidate compounds (1.5 μL) in a total volume of 150 μL of buffer (20 mM Tris pH 7.4, 10% glycerol). The reaction was carried out at 37° C. for one hour, after which the reaction was stopped by adding 20 μL of 1 M HCl/0.4 M sodium acetate. Then, 750 μL of ethyl acetate was added, the samples vortexed and, after centrifugation (14000 rpm, 5 min), 600 μL from the upper phase were transferred to a vial containing 3 mL of scintillation liquid (UltimaGold, Packard, Cat. No. 6013329). Radioactivity was measured using a Tri-Carb 2100TR Liquid Scintillation Analyzer (Packard).
Percent activity (% activity) for each test compound was calculated as: % activity={(S^C−B)/(S^o−B)}×100 wherein S^c denotes signal measured in the presence of enzyme and the compound being tested, S^o denotes signal measured in the presence of enzyme but in the absence of the compound being tested, and B denotes the background signal measured in the absence of both enzyme and compound being tested.

The next test has as its system HeLa cells. Description: Secondary assay: cell proliferation WST-1, HeLa. In kind it is cell-based. Conditions: Homo sapiens, 48 h, read-out: Cell Proliferation Inhibition WST-1 IC50, HeLa. The protocol: (§1) Compounds with HDAC inhibition activity, as determined using the primary assay, were subsequently evaluated using secondary cell-based assays. The following cell lines were used:
(§2) Cells were plated in 96-well plates at 3-10×10^3 cells/well in 100 μL of culture medium. The following day, different concentrations of candidate compounds were added and the cells incubated at 37° C. for 48 h. Subsequently, 10 μL/well of WST-1 reagent was added and the cells reincubated for 1 hour. After the incubation time, absorbance was measured.
(§3) WST-1 is a tetrazolium salt which is cleaved to formazan dye by cellular enzymes. […] The formazan dye produced is quantified by a scanning multiwell spectrophotometer by measuring the absorbance of the dye solution at 450 nm wavelength (reference wavelength 690 nm).
(§4) Percent activity (% activity) in reducing the number of viable cells was calculated for each test compound as: % activity={(S^C−B)/(S^o−B)}×100 wherein S^C denotes signal measured in the presence of the compound being tested, S^o denotes signal measured in the absence of the compound being tested, and B denotes the background signal measured in blank wells containing medium only. […] IC50 values were calculated using the software package Prism 3.0 (GraphPad Software Inc., San Diego, Calif.), setting top value at 100 and bottom value at 0.
For orientation: Tetrazolium dyes change colour on reduction, which living cells bring about.

In test [1] the test system is K11 HPV E7 transformed human keratinocyte line. Put plainly: Secondary assay: cell proliferation WST-1, K11. In kind it is cell-based. The conditions noted are these: K11, 48 h, read-out: Cell Proliferation Inhibition WST-1 IC50, K11. The procedure: as §1
K11—HPV E7 transformed human keratinocyte line provided by Pidder Jansen-Duerr, Institut für Biomedizinische Alternsforschung, Innsbruck, Austria.
as §2
WST-1 is a tetrazolium salt which is cleaved to formazan dye by cellular enzymes. An expansion in the number of viable cells results in an increase in the overall activity of mitochondrial dehydrogenases in the sample. […] The formazan dye produced is quantified by a scanning multiwell spectrophotometer by measuring the absorbance of the dye solution at 450 nm wavelength (reference wavelength 690 nm).
IC50 values were calculated using the software package Prism 3.0 (GraphPad Software Inc., San Diego, Calif.), setting top value at 100 and bottom value at 0.

The test system of another test is JURKAT human T-cell line. Put plainly: Secondary assay: cell proliferation WST-1, Jurkat. In kind it is cell-based. The conditions noted are these: 48 h, read-out: Cell Proliferation Inhibition WST-1 IC50, Jurkat. The protocol: as §1
JURKAT—Human T-cell line (ATCC no. TIB-152).
as §2, §3, §4

As for `CC(C)c1ccc(NC(=O)COCC(=O)NO)cc1` [Compound 1], the “HDAC Inhibition, HeLa (percent activity)” value in the test with HDAC (HeLa cell extract) (@ 1.0 μM) is given as 16% @ 1.0 μM. As to `CN(C)c1ccc(NC(=O)CSCC(=O)NO)cc1` [Compound 2], the “HDAC Inhibition, HeLa (percent activity)” value in the test on HDAC (HeLa cell extract) (@ 500 nM) came out at 26% @ 500 nM. `CN(C)c1ccc(NC(=O)COCC(=O)NO)cc1` [Compound 4]: the “HDAC Inhibition, HeLa (percent activity)” value in the test on HDAC (HeLa cell extract) (@ 1.0 μM) turned out to be 0% @ 1 μM.

With `O=C(/C=C/C=C/c1ccccc1)NCCSCCC(=O)NO` [Compound 5, (2E)(4E)-5-Phenylpenta-2,4-dienoic acid [2-(2-hydroxycarbamoylethylsulfanyl)ethyl]amide], the “HDAC Inhibition, HeLa (percent activity)” value in the test on HDAC (HeLa cell extract) (@ 500 nM) came to 74% @ 500 nM. The pIC50 with HeLa cells is 4.06.

Turning to `O=C(CCSCCNC(=O)c1ccc2ccccc2c1)NO` [Compound 6, E-Naphthalene-2-carboxylic acid [2-(2-hydroxycarbamoylethylsulfanyl)ethyl]amide], the “HDAC Inhibition, HeLa (percent activity)” value with HDAC (HeLa cell extract) (@ 500 nM) worked out at 43% @ 500 nM. As for `O=C(/C=C/C=C/c1ccccc1)NCCCOc1ccc(CC(=O)NO)cc1` [Compound 7, (2E,4E)-N-(3-{4-[2-(Hydroxyamino)-2-oxoethyl]phenoxy}propyl)-5-phenyl-2,4-pentadienamide], in the test on HDAC (HeLa cell extract) (@ 500 nM), the “HDAC Inhibition, HeLa (percent activity)” value came out at 7% @ 500 nM. Take `O=C(/C=C/c1ccccc1)Nc1cccc(OCC(=O)NO)c1` [Compound 8, (E)-N-{3-[2-(Hydroxyamino)-2-oxoethoxy]phenyl}-3-phenyl-2-propenamide]: the pIC50 in the test with HDAC (HeLa cell extract) (unit inferred, read-out: HDAC Inhibition IC50, HeLa) is 6.12; with HeLa cells, 4.60; in test [1] it was 5.98; in the test with JURKAT human T-cell line, 4.90.

Consider `O=C(/C=C/C#Cc1cccc(NS(=O)(=O)c2ccccc2)c1)NO` [Oxamflatin, (2E)-5-[3-[(phenylsulfonyl)amino]phenyl]-pent-2-en-4-ynohydroxamic acid, reference compound], for which the pIC50 in test [1] is 5.32; in the test on JURKAT human T-cell line it was 6.77.
